Drawing on patent publication US12559506B2, “Indazole based compounds and associated methods of use” (Arvinas Operations, Inc., priority 2021, dated 2026), this text covers DC50 and Dmax for eleven molecules.

Test [1] deals with T1, G2019S LRRK2 (Homo sapiens, UniProt Q5S007, G2019S).
T1 construct: expressed in transfected cells; host or cells: HEK293 (ATCC CRL-1573), transient transfection, mammalian expression vector with ubiquitin promoter
Nature of the test: LRRK2 degradation assay, HiBit-tagged G2019S LRRK2 expressed from plasmid in HEK293 cells (Nano-Glo Dual-Luciferase). Type of test: cell-based. The note with it: 24 hours. The source says:
(§1) Exemplary Assay for Testing LRRK2 Degradation Driven by Exemplary Hetero-Bifunctional Compounds Designed to Target LRRK2
(§2) The assay measures the degradation of wildtype and G2019S LRRK2 tagged with a HiBit tag on the C-terminus of the protein that was expressed from a mammalian expression vector, driven by the ubiquitin promoter in HEK293 cells. Each compound dose-response was repeated on two separate days, on three separate plates each day.
(§3) Plasmid Preparation. Transfection mixes were assembled as follows and incubated for 30 minutes at room temperature. In a 15 mL tube, 5.25 mL Opti-MEM (no additions) was mixed with 17 μL Firefly Luciferase plasmid at 1 μg/μL and 158 μL WT plasmid DNA at 1 μg/μL (175 μg total DNA) were mixed by flicking. In a new 15 mL tube, 5.25 mL OptiMEM was mixed with 17 μL Firefly Luciferase plasmid at 1 μg/μL and 158 μL G2019S plasmid DNA at 1 μg/μL (175 μg total DNA) were mixed by flicking. X-tremeGene HP was mixed thoroughly using a vortex. Next, 175 μL was added to each tube and flicked to mix. Both tubes were left to incubate for 30 minutes at room temperature.
(§4) While the transfection mixes were incubating, HEK293 cells (acquired from ATCC; ATCC CRL-1573) were harvested with trypsin. Once cells are detached, the cells were resuspended in 12 mL OptiMEM+5% FBS and transferred to a 50 mL tube. The cells were mixed well and counted. Using OptiMEM+5% FBS, the cells were diluted in two 250 mL conical tubes at 0.71×10^6 cells/mL in 70 mL. One tube was labeled “WT” and the other “G2019S”. The WT and G2019S transfection mixes were added dropwise to the corresponding 250 mL tubes. The tubes were mixed first by pipetting then by swirling. The tubes were incubated at room temperature for at least 5 minutes.
(§5) Each tube was swirled before dispensing and after every three plates. Seventy microliters of cells were dispensed with WT or G2019S DNA to seven plates each. Three plates of each were tested with compound plate one (preparation described below) and three plates of each were tested with compound plate two (preparation described below). The first plate from each set served as a “prime” plate and was not used to test compounds. Each plate was incubated in the hood for 10 minutes before placing in the 37° C. incubator for 24 hours.
(§6) Preparation of Compound and Assay Plates. Two compound plates were made using 96 well polypropylene plates. Compounds were made up at 10 mM and were diluted to 1 mM in 30 μL. Each dose response curve included a well of DMSO, as a negative control and for normalization, and a well of 0.5 μM of Compound 4 as a positive control. In addition to seven test compounds, each plate also included a dose response of Compound 4. The compound plates were spun down along at 1200 rpm for 2 minutes.
(§7) The two compound plates were then mixed and 2 μL was diluted in intermediate plates having 248 μL of Opti-Mem in each well. Next, 10 μL diluted compounds from the intermediate plates were added to each test plate (three WT and three G2019S plates per compound plate for a total of 12 assay plates). The plates were incubated for 24 hours at 37° C.
(§8) All assay plates and all Nano-Glo Dual-Luciferase Reporter Assay System components (except for the DLR substrate) were equilibrated to room temperature. Next, the luciferase buffer was mixed with the lyophilized amber bottle until fully dissolved, and 75 μL of the luciferase mixture was added to each well of each assay plate. The assay plates were incubated for 10 minutes at room temperature with shaking for at least 5 minutes, and then read on a plate reader.
(§9) Developing Plates and Analyzing Data. One milliliter of DLR substrate and 1 mL LgBiT Protein were added to the Stop and Glo buffer, and 75 μL of the mixture was added to each well of each plate. Optically clear seals were added to each plate and each plate was incubated for 20 minutes with shaking for at least 10 minutes, and then read on a plate reader. […]
(HiBiT is a short tag that completes a luciferase, so light tracks the accessible tagged protein.)

Test [2] deals with T2, wildtype LRRK2 (Homo sapiens, UniProt Q5S007).
T2 construct: expressed in transfected cells; host or cells: HEK293 (ATCC CRL-1573), transient transfection, mammalian expression vector with ubiquitin promoter
Briefly: LRRK2 degradation assay, HiBit-tagged wildtype LRRK2 expressed from plasmid in HEK293 cells (Nano-Glo Dual-Luciferase). Type of test: cell-based. The note with it: 24 hours; for Dmax: read-out: **WT Dmax (%); for DC50: read-out: *WT DC50.
Source text: as §1, §2, §3, §4, §5, §6, §7, §8, §9

Setting [3] is: HiBit-tagged G2019S LRRK2, HEK293 cells.
The mark [4] stands for this setting: HiBit-tagged wildtype LRRK2, HEK293 cells.
Setting [5] is: HiBit-tagged G2019S LRRK2 in HEK293 cells.
The mark [6] stands for this setting: HiBit-tagged wildtype LRRK2 in HEK293 cells.

Like-named read-outs stand apart in the source and are kept apart here. Bounds are passed on as bounds.

T1 sequence (Q5S007 whole entry G2019S): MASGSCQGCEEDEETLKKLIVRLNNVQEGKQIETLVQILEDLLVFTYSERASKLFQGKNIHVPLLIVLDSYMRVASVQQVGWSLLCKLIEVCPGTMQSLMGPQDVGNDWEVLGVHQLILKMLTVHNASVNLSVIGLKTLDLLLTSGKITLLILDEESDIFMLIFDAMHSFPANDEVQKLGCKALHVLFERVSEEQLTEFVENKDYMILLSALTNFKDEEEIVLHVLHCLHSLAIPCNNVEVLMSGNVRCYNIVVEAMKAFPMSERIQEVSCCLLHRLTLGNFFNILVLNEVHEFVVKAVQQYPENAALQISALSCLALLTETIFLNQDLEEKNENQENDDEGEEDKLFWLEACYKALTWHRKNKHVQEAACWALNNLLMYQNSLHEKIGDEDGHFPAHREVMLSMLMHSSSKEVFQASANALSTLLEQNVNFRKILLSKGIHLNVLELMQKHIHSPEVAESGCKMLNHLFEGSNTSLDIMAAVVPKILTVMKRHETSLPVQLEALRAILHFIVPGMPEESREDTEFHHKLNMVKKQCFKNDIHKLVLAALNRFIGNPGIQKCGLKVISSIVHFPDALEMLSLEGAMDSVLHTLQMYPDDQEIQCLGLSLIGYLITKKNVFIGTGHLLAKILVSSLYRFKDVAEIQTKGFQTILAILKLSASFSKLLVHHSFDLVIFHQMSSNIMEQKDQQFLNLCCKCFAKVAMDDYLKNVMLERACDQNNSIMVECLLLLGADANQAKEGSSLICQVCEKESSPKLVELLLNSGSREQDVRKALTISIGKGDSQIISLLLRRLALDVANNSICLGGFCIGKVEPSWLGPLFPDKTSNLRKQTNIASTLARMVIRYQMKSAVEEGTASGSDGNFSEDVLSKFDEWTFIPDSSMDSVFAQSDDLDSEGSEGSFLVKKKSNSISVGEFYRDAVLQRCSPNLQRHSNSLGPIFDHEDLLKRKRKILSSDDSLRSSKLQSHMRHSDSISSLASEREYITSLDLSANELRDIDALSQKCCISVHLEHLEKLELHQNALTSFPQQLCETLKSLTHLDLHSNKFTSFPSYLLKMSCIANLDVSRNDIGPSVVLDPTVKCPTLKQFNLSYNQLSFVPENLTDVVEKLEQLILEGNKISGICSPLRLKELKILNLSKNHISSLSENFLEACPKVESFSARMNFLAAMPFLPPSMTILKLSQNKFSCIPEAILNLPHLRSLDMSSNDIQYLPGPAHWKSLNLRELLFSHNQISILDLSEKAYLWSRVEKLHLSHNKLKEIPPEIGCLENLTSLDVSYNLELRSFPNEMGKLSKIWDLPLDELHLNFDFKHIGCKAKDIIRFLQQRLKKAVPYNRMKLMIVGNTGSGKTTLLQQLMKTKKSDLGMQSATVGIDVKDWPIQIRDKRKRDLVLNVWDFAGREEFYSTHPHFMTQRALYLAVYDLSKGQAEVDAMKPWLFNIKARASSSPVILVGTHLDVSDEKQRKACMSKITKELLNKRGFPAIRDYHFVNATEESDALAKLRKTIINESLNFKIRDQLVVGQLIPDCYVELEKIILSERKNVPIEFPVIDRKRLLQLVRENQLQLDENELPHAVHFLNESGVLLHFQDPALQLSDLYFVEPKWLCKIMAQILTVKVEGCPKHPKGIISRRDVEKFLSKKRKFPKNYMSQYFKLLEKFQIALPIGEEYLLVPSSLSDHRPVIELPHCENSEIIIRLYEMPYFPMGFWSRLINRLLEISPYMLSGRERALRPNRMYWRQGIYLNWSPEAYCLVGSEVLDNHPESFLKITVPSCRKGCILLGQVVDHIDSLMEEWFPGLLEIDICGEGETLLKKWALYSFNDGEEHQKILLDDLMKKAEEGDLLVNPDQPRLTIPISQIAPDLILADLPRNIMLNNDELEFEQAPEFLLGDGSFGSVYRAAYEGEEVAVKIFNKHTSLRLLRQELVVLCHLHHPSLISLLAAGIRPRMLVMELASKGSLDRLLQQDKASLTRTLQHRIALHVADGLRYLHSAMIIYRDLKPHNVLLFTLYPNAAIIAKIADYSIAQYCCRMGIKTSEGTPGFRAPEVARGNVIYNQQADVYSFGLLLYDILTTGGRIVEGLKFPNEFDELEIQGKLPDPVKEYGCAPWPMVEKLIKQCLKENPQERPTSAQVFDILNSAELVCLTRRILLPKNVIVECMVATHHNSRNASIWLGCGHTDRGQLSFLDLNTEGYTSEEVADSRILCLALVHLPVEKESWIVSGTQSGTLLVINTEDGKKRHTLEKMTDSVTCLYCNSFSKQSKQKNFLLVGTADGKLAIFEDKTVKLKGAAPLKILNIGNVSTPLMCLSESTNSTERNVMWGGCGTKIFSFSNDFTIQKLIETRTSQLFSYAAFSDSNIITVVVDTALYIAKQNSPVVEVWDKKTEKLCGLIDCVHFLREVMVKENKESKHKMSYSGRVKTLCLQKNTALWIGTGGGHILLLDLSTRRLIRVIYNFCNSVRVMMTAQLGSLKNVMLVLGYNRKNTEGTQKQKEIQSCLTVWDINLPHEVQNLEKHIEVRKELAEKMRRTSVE
T2 sequence (Q5S007 whole entry): as the sequence (Q5S007 whole entry G2019S) above, with S2019G counted along it

Broadly, the DC50 is the concentration at which degradation of the target reaches its halfway point. For orientation: Dmax means the largest share of the target that was removed. For the molecule `CC1(Oc2ccc3[nH]nc(-c4cc(N5CCO[C@@H](CCN6CCN(CC7CCN(c8ccc9c(c8)C(=O)N(C8CCC(=O)NC8=O)C9=O)CC7)CC6)C5)ncn4)c3c2)CC1` (single isomer, unassigned) [Compound 154], in test [1] (setting [3]), the DC50 is < 10 nM and the Dmax is 50 to 70%. In addition, in test [2] (setting [4]), the maximal degradation (Dmax) lay in the range of 50 to 70% and the half-maximal degradation concentration (DC50) was < 10 nM.
As to `C[C@H]1CN(c2cc(-c3n[nH]c4cc(F)c(OC5(C)CC5)cc34)ncn2)CCN1CC1CCN(CC2CCN(c3ccc4c(c3)C(=O)N(C3CCC(=O)NC3=O)C4=O)CC2)CC1` (stereo partly drawn) [Compound 71, 2-(2,6-dioxopiperidin-3-yl)-5-{4-[(4-{[(2S)-4-{6-[6-fluoro-5-(1-methylcyclopropoxy)-1H-indazol-3-yl]pyrimidin-4-yl}-2-methylpiperazin-1-yl]methyl}piperidin-1-yl)methyl]piperidin-1-yl}-2,3-dihydro-1H-isoindole-1,3-dione], in test [1] (setting [5]), the 50% degradation concentration (DC50) is < 10 nM and the maximal degradation (Dmax) was < 50%. In test [2] (setting [6]), the maximal degradation (Dmax) was in the range of 50 to 70% and the DC50 was < 10 nM.
Consider `CC1(Oc2ccc3[nH]nc(-c4cc(N5CCN(CC6CCN(CC7CCN(c8ccc9c(c8)C(=O)N(C8CCC(=O)NC8=O)C9=O)CC7)CC6)CC5)ncn4)c3c2)CC1` (stereo not drawn) [Compound 76, 2-(2,6-dioxo-3-piperidyl)-5-[4-[[4-[[4-[6-[5-(1-methylcyclopropoxy)-1H-indazol-3-yl]pyrimidin-4-yl]piperazin-1-yl]methyl]-1-piperidyl]methyl]-1-piperidyl]isoindoline-1,3-dione], for which, in test [1] (setting [5]), the half-maximal degradation concentration (DC50) was < 10 nM and the Dmax lay in the range of 50 to 70%. Also, in test [2] (setting [6]), the Dmax is < 50% and the DC50 is < 10 nM.
In test [1] (setting [3]), `CC1(Oc2ccc3[nH]nc(-c4ccnc(N5CC6(CN(CC7CCN(CC8CCN(c9ccc%10c(c9)C(=O)N(C9CCC(=O)NC9=O)C%10=O)CC8)CC7)C6)C5)c4)c3c2)CC1` (stereo not drawn) [Compound 161, 2-(2,6-dioxo-3-piperidyl)-5-[4-[[4-[[2-[4-[5-(1-methylcyclopropoxy)-1H-indazol-3-yl]-2-pyridyl]-2,6-diazaspiro[3.3]heptan-6-yl]methyl]-1-piperidyl]methyl]-1-piperidyl]isoindoline-1,3-dione] yielded a DC50 of 10 to 50 nM and a Dmax of 50 to 70%. Moreover, in test [2] (setting [4]), the Dmax lay within 50 to 70% and the DC50 lay in the range of 10 to 50 nM.
`C[C@H]1CN(c2cc(-c3n[nH]c4ccc(OC5(C)CC5)cc34)ncn2)CCN1CC1CN(CC2CCN(c3ccc4c(c3)C(=O)N(C3CCC(=O)NC3=O)C4=O)CC2)C1` (stereo partly drawn) [Compound 122, 2-(2,6-dioxo-3-piperidyl)-5-[4-[[3-[[(2S)-2-methyl-4-[6-[5-(1-methylcyclopropoxy)-1H-indazol-3-yl]pyrimidin-4-yl]piperazin-1-yl]methyl]azetidin-1-yl]methyl]-1-piperidyl]isoindoline-1,3-dione]: in test [1] (setting [5]), the 50% degradation concentration (DC50) was < 10 nM and the maximal degradation (Dmax) was 50 to 70%. Besides, in test [2] (setting [6]), the Dmax is 50 to 70% and the DC50 was < 10 nM.
With `C[C@H]1CN(c2cc(-c3n[nH]c4ccc(OC5(C)CC5)cc34)ncn2)CCN1CC1CCN(CC2(F)CCN(c3ccc4c(c3)C(=O)N(C3CCC(=O)NC3=O)C4=O)CC2)CC1` (stereo partly drawn) [Compound 70, 2-(2,6-dioxo-3-piperidyl)-5-[4-fluoro-4-[[4-[[(2S)-2-methyl-4-[6-[5-(1-methylcyclopropoxy)-1H-indazol-3-yl]pyrimidin-4-yl]piperazin-1-yl]methyl]-1-piperidyl]methyl]-1-piperidyl]isoindoline-1,3-dione], the DC50 in test [1] (setting [5]) and in test [2] (setting [6]) was < 10 nM each time. Further, the Dmax in test [1] (setting [5]) and in test [2] (setting [6]) was < 50% each time.
In the case of `CC1(Oc2ccc3[nH]nc(-c4cc(N5CC[C@H](CN6CCN(CC7CCN(c8ccc9c(c8)C(=O)N(C8CCC(=O)NC8=O)C9=O)CC7)CC6)C5)ncn4)c3c2)CC1` (stereo partly drawn) [Compound 166, 2-(2,6-dioxo-3-piperidyl)-5-[4-[[4-[[(3R)-1-[6-[5-(1-methylcyclopropoxy)-1H-indazol-3-yl]pyrimidin-4-yl]pyrrolidin-3-yl]methyl]piperazin-1-yl]methyl]-1-piperidyl]isoindoline-1,3-dione], in test [1] (setting [3]), the 50% degradation concentration (DC50) was < 10 nM and the Dmax is < 50%. Moreover, in test [2] (setting [4]), the Dmax is < 50% and the half-maximal degradation concentration (DC50) is < 10 nM.
As to `CC1(Oc2ccc3[nH]nc(-c4cc(N5CCO[C@@H](CN6CCN(CC7CCN(c8ccc9c(c8)C(=O)N(C8CCC(=O)NC8=O)C9=O)CC7)CC6)C5)ncn4)c3c2)CC1` (stereo partly drawn) [Compound 153, 2-(2,6-dioxopiperidin-3-yl)-5-{4-[(4-{[(2S)-4-{6-[5-(1-methylcyclopropoxy)-1H-indazol-3-yl]pyrimidin-4-yl}morpholin-2-yl]methyl}piperazin-1-yl)methyl]piperidin-1-yl}-2,3-dihydro-1H-isoindole-1,3-dione], in test [1] (setting [3]), the DC50 is < 10 nM and the Dmax is < 50%. Moreover, in test [2] (setting [4]), the Dmax was < 50% and the DC50 is < 10 nM.
On to `CC1(Oc2ccc3[nH]nc(-c4cc(N5CCC(CN6CCN(C(=O)C7CCN(c8ccc9c(c8)C(=O)N(C8CCC(=O)NC8=O)C9=O)CC7)CC6)CC5)ncn4)c3c2)CC1` (stereo not drawn) [Compound 94, 2-(2,6-dioxopiperidin-3-yl)-5-(4-{4-[(1-{6-[5-(1-methylcyclopropoxy)-1H-indazol-3-yl]pyrimidin-4-yl}piperidin-4-yl)methyl]piperazine-1-carbonyl}piperidin-1-yl)-2,3-dihydro-1H-isoindole-1,3-dione], for which the DC50 in test [1] (setting [5]) and in test [2] (setting [6]) was < 10 nM throughout. Also, the Dmax in test [1] (setting [5]) and in test [2] (setting [6]) was 50 to 70% in each case.
For `CC1(Oc2ccc3[nH]nc(-c4cc(N5CCN(Cc6cccc(CN7CCN(c8ccc9c(c8)C(=O)N(C8CCC(=O)NC8=O)C9=O)CC7)c6)CC5)ncn4)c3c2)CC1` (stereo not drawn) [Compound 170, 2-(2,6-dioxo-3-piperidyl)-5-[4-[[3-[[4-[6-[5-(1-methylcyclopropoxy)-2H-indazol-3-yl]pyrimidin-4-yl]piperazin-1-yl]methyl]phenyl]methyl]piperazin-1-yl]isoindoline-1,3-dione], the 50% degradation concentration (DC50) in test [1] (setting [3]) and in test [2] (setting [4]) was ≥ 100 nM in each case.
With `CC1(Oc2ccc3[nH]nc(-c4cc(N5CCN(C[C@H]6CC[C@H](CN7CCN(c8ccc9c(c8)C(=O)N(C8CCC(=O)NC8=O)C9=O)CC7)CC6)CC5)ncn4)c3c2)CC1` (stereo partly drawn) [Compound 101, 2-(2,6-dioxo-3-piperidyl)-5-[4-[[4-[[4-[6-[5-(1-methylcyclopropoxy)-1H-indazol-3-yl]pyrimidin-4-yl]piperazin-1-yl]methyl]cyclohexyl]methyl]piperazin-1-yl]isoindoline-1,3-dione], the DC50 in test [1] (setting [5]) is < 10 nM; in test [2] (setting [6]), 10 to 50 nM. For the same molecule, the Dmax is < 50% in test [1] (setting [5]) and 50 to 70% in test [2] (setting [6]).
